Results published in ChEMBL document CHEMBL4334493, “14- and 15-membered lactone macrolides and their analogues and hybrids: structure, molecular mechanism of action and biological activity” (Eur J Med Chem, 2019).
Converted amounts (≈) assume the structure as drawn.

Columns and labels:
Assay type in all cases: functional
[1] = system: Haemophilus influenzae; assay: Antibacterial activity against Haemophilus influenzae 49247
[2] = system: Haemophilus influenzae; assay: Antibacterial activity against Haemophilus influenzae 33929
[3] = system: Streptococcus pyogenes; assay: Antibacterial activity against Streptococcus pyogenes R2
[4] = system: Staphylococcus aureus; assay: Antibacterial activity against Staphylococcus aureus ATCC 25923
[5] = system: Streptococcus pneumoniae; assay: Antibacterial activity against Streptococcus pneumoniae B1
[6] = system: Streptococcus pyogenes; assay: Antibacterial activity against Streptococcus pyogenes S2
[7] = system: Streptococcus pneumoniae; assay: Antibacterial activity against Streptococcus pneumoniae AB11
[8] = system: Staphylococcus aureus; assay: Antibacterial activity against Staphylococcus aureus
[9] = system: Streptococcus pneumoniae; assay: Antibacterial activity against Streptococcus pneumoniae A22072
[10] = system: Streptococcus pneumoniae; assay: Antibacterial activity against Streptococcus pneumoniae ATCC 49619
[11] = system: Staphylococcus aureus; assay: Antibacterial activity against methicillin/erythromycin susceptible Staphylococcus aureus by broth microdilution method
[12] = system: Staphylococcus haemolyticus; assay: Antibacterial activity against Staphylococcus haemolyticus by broth microdilution method
[13] = system: Haemophilus influenzae; assay: Antibacterial activity against Haemophilus influenzae by broth microdilution method
[14] = system: Staphylococcus epidermidis; assay: Antibacterial activity against methicillin resistant Staphylococcus epidermidis by broth microdilution method
[15] = system: Enterococcus faecalis; assay: Antibacterial activity against Enterococcus faecalis by broth microdilution method
[16] = system: Staphylococcus aureus; assay: Antibacterial activity against methicillin resistant Staphylococcus aureus by broth microdilution method
[17] = system: Staphylococcus aureus; assay: Antibacterial activity against methicillin susceptible and erythromycin resistant Staphylococcus aureus by broth microdilution method
[18] = system: Staphylococcus epidermidis; assay: Antibacterial activity against methicillin susceptible Staphylococcus epidermidis by broth microdilution method
[19] = system: Streptococcus pneumoniae; assay: Antibacterial activity against Streptococcus pneumoniae by broth microdilution method
[20] = system: Staphylococcus aureus; assay: Antibacterial activity against Staphylococcus aureus ATCC 29213 by broth microdilution method
[21] = system: Staphylococcus epidermidis; assay: Antibacterial activity against Staphylococcus epidermidis 11X315 by broth microdilution method
[22] = system: Haemophilus influenzae; assay: Antibacterial activity against Haemophilus influenzae 11Q373 by broth microdilution method
[23] = system: Staphylococcus epidermidis; assay: Antibacterial activity against Staphylococcus epidermidis 11C176 by broth microdilution method
[24] = system: Streptococcus pneumoniae; assay: Antibacterial activity against Streptococcus pneumoniae 11J011 by broth microdilution method
[25] = system: Streptococcus pneumoniae; assay: Antibacterial activity against Streptococcus pneumoniae ATCC 49619 by broth microdilution method
[26] = system: Haemophilus influenzae; assay: Antibacterial activity against Haemophilus influenzae ATCC 49247 by broth microdilution method
[27] = system: Staphylococcus aureus; assay: Antibacterial activity against Staphylococcus aureus 11B117 by broth microdilution method
[28] = system: Moraxella catarrhalis; assay: Antibacterial activity against Moraxella catarrhalis by broth microdilution method
[29] = system: Staphylococcus aureus; assay: Antibacterial activity against methicillin resistant Staphylococcus aureus 7662
[30] = system: Staphylococcus aureus; assay: Antibacterial activity against methicillin resistant Staphylococcus aureus 33591

| SMILES | MIC [1] [µg/mL] | MIC [2] [µg/mL] | MIC50 [20] [µg/mL] | MIC50 [21] [µg/mL] | MIC50 [22] [µg/mL] | MIC50 [23] [µg/mL] | MIC50 [24] [µg/mL] | MIC50 [25] [µg/mL] | MIC50 [26] [µg/mL] | MIC50 [27] [µg/mL] | MIC50 [28] [µg/mL] | other results |
| --- | --- | --- | --- | --- | --- | --- | --- | --- | --- | --- | --- | --- |
| CC[C@H]1OC(=O)[C@H](C)C(=O)[C@H](C)[C@@H](O[C@@H]2O[C@H](C)C[C@H](N(C)C)[C@H]2O)[C@@]2(C)C[C@@H](C)C(=O)[C@H](C)[C@@H](OC/C(=N\OCc3ccc(-c4nc(N)cs4)cn3)CO2)[C@]1(C)O | 1 (≈ 1.2 µM) | 2 (≈ 2.4 µM) | – | – | – | – | – | – | – | – | – | – |
| CC[C@H]1OC(=O)[C@H](C)[C@@H](O[C@H]2C[C@@](C)(OC)[C@@H](OC(=O)NCc3cccc(Cl)c3)[C@H](C)O2)[C@H](C)[C@@H](OC2O[C@H](C)C[C@H](N(C)C)[C@H]2O)[C@]2(C)C[C@@H](C)/C(=N\[C@H](C)[C@H]3OC(=O)O[C@@]31C)O2 (stereo partly specified) | – | – | – | – | – | – | – | – | – | – | – | MIC [3]: 64 µg/mL (≈ 69.2 µM); MIC [4]: 8 µg/mL (≈ 8.65 µM); MIC [5]: 16 µg/mL (≈ 17.3 µM); MIC [6]: 1 µg/mL (≈ 1.08 µM); MIC [7]: 16 µg/mL (≈ 17.3 µM); MIC [8]: 32 µg/mL (≈ 34.6 µM); MIC [9]: 4 µg/mL (≈ 4.33 µM); MIC [10]: 0.03 µg/mL (≈ 0.0324 µM) |
| CC[C@H]1OC(=O)[C@H](C)C(=O)[C@H](C)[C@@H](O[C@@H]2O[C@H](C)C[C@H](N(C)C)[C@H]2O)[C@](C)(OC)C[C@@H](C)C(=O)[C@H](C)[C@H]2N(CCCOC(=O)Nc3cccc(C)c3)C(=O)O[C@]12C | – | – | – | – | – | – | – | – | – | – | – | MIC50 [11]: 0.125 µg/mL (≈ 0.155 µM); MIC50 [12]: 1 to 2 µg/mL (≈ 1.24 to 2.49 µM); MIC50 [13]: 4 to 8 µg/mL (≈ 4.98 to 9.95 µM); MIC50 [14]: 1 to 128 µg/mL (≈ 1.24 to 159 µM); MIC50 [15]: > 256 µg/mL; MIC50 [16]: 128 to 256 µg/mL (≈ 159 to 318 µM); MIC50 [17]: 0.25 µg/mL (≈ 0.311 µM); MIC50 [18]: 0.031 µg/mL (≈ 0.0386 µM); MIC50 [19]: 0.062 to 0.125 µg/mL (≈ 0.0771 to 0.155 µM) |
| CC[C@H]1OC(=O)[C@H](C)C(=O)[C@H](C)[C@@H](O[C@@H]2O[C@H](C)C[C@H](N(C)C)[C@H]2O)[C@](C)(OC)C[C@@H](C)C(=O)[C@H](C)[C@H]2N(CCCN(c3cnc4ccccc4c3)S(=O)(=O)c3ccc(C)cc3)C(=O)O[C@]12C | – | – | 2 (≈ 2.1 µM) | 1 (≈ 1.05 µM) | 16 (≈ 16.8 µM) | 1 (≈ 1.05 µM) | 2 (≈ 2.1 µM) | 0.25 (≈ 0.263 µM) | 32 (≈ 33.6 µM) | > 64 | 2 (≈ 2.1 µM) | – |
| CC[C@H]1OC(=O)[C@H](C)C(=O)[C@H](C)[C@@H](O[C@@H]2O[C@H](C)C[C@H](N(C)C)[C@H]2O)[C@](C)(OC)C[C@@H](C)C(=O)[C@H](C)[C@H]2N(CCCN(Cc3ccccc3)c3cnc4ccccc4c3)C(=O)O[C@]12C | – | – | 0.25 (≈ 0.282 µM) | 0.25 (≈ 0.282 µM) | 2 (≈ 2.25 µM) | 0.25 (≈ 0.282 µM) | 2 (≈ 2.25 µM) | 0.031 (≈ 0.0349 µM) | 2 (≈ 2.25 µM) | > 64 | 0.25 (≈ 0.282 µM) | – |
| CCC(=O)/N=C1\[C@H](C)C[C@@]2(C)OC/C(=N/OCc3csc(-c4cccc(N)n4)n3)CO[C@H]([C@H]1C)[C@](C)(O)[C@@H](CC)OC(=O)[C@@](C)(F)C(=O)[C@H](C)[C@H]2O[C@@H]1O[C@H](C)C[C@H](N(C)C)[C@H]1O | 1 (≈ 1.1 µM) | 4 (≈ 4.42 µM) | – | – | – | – | – | – | – | – | – | MIC [29]: 1 µg/mL (≈ 1.1 µM); MIC [30]: 2 µg/mL (≈ 2.21 µM) |
